Data on 13 molecules can be found in US4086350A, “Pharmaceutical compositions and method of producing anti-psychotic activity without extrapyramidal symptoms” (priority 1975, dated 1978).

The test system of one data set is extrapyramidal symptoms. The note with it: compared with chlorpromazine; cited from earlier work.
Data set [1] has as its system amphetamine-induced rotation vs. avoidance acquisition. Description: R/A ratio: ED50 amphetamine-induced rotation / ED50 avoidance acquisition. It counts as in vivo, rat. The note with it: ratio of i.p. ED50 values in rats. The method, then:
(§1) To predict the potential ability of a drug to cause EPS, the ratio of its ED50 (i.p.) for antagonism of amphetamine-induced rotation to its ED50 (i.p.) for blockade of shock avoidance acquisition in the rat, a procedure for assessing antipsychotic activity, (R/A ratio) is calculated.

Data set [2] concerns striatal dopamine receptors. Description: Antagonism of amphetamine-induced rotation in rats with unilateral substantia nigra lesions (Ungerstedt). Format: in vivo, rat. The note with it: i.p., piperidylidene derivatives (Table II).
Excerpt: There is evidence that antipsychotic drugs cause EPS by interfering with neurotransmission in a nigrostriatal dopaminergic pathway. It is thought that they block dopamine receptors in the neostriatum. Therefore, the ability of a drug to block striatal dopamine receptors is a measure of its EPS liability.
To assess the potency of drugs in blocking striatal dopamine receptors a procedure was used which was developed by Ungerstedt [Ungerstedt and Arbuthnott, Brain Res. 24 485 (1970); Ungerstedt, Acta physiol. scand., Suppl. 367, 49 (1971)] using rats with unilateral lesions of the substantia nigra induced by injection of 6-hydroxydopamine. This treatment causes degeneration of the nigrostriatal dopaminergic pathway accompanied by a marked decrease in the dopamine content of the neostriatum on the side of the lesion. Animals with this lesion develop postural and motor asymmetries which are altered by drugs which affect dopaminergic activity. Amphetamine, which releases dopmine and norepinephrine from catecholaminergic neurons, causes these rats to rotate unidirectionally toward the side of the lesion. Since there is a much larger amount of dopamine to be released by amphetamine from the intact nigrostriatal neurons on the non-lesioned side than from those remaining on the lesioned side, the rotational behavior is apparently due to the preponderance of activation of striatal dopamine receptors on the intact side. The ability of a drug to antagonize the rotational behavior is therefore a measure of its ability to block striatal dopamine receptors and is indicative of its potential to produce EPS.
as §1

For data set [3], the system named is shock avoidance acquisition in the rat. Description: Antagonism of shock avoidance acquisition in the rat (antipsychotic activity). The note with it: ip, rats, i.p., piperidylidene derivatives (Table II), read-out: Antagonism of Avoidance Acquisition, Rats, ED50 (A). Format: in vivo. The method, then: as §1
Setting [4] is: piperidylidene derivatives (Table II).

For the molecule `CN1CCN(C2=Nc3cc(Cl)ccc3Nc3ccccc32)CC1` [Clozapine, reference compound], the “propensity to cause EPS” value in the data set with extrapyramidal symptoms was “known to produce EPS to a lesser extent than chlorpromazine”. Besides, the R/A ratio in data set [1] (clinically established antipsychotics (Table I)) is listed as 3.8.

Turning to `CSc1ccc2c(c1)N(CCC1CCCCN1C)c1ccccc1S2` (stereo not drawn) [Thioridazine], in the data set with extrapyramidal symptoms, the “propensity to cause EPS” value was “known to produce EPS to a lesser extent than chlorpromazine”.

A word on the ED50: it is the dose that gives a 50% effect, or the effect in half of the subjects. With `CCCN1CCC(=C2c3ccccc3Oc3ccc(Cl)cc32)CC1` [XXIII, 4-(2-chloro-9-xanthenylidene)-1-n-propylpiperidine], the “Antagonism of Amphetamine-induced Rotation, Rats, ED50 (R)” value (“Antagonism” for short) in data set [2] was 2.4 mg/kg. Moreover, the ED50 in data set [3] turned out to be 0.6 mg/kg. Moreover, the R/A ratio in data set [1] (setting [4]) is on record as 4.0.

Consider `Clc1ccc2c(c1)C(=C1CCN(CC3CCC3)CC1)c1ccccc1O2` [XXIV, 4-(2-chloro-9-xanthenylidene)-1-cyclobutylmethylpiperidine], for which the “Antagonism” value in data set [2] came to 1.6 mg/kg. In data set [3], the ED50 stood at 0.5 mg/kg. Further, the R/A ratio in data set [1] (setting [4]) is 3.2.

As to `CN1CCC(=C2c3ccc(F)cc3Sc3ccc(F)cc32)CC1` [XXIX, 4-(2,6-difluoro-9-thioxanthenylidene)-1-methylpiperidine], the “Antagonism” value in data set [2] turned out to be 2.4 mg/kg. For the same molecule, in data set [3], the median effective dose (ED50) came out at 0.5 mg/kg. Also, the R/A ratio in data set [1] (setting [4]) came to 4.8.

`Brc1ccc2c(c1)C(=C1CCNCC1)c1ccccc1O2` [XXV, 4-(2-bromo-9-xanthenylidene)-piperidine]: the “Antagonism” value in data set [2] is recorded as 4.0 mg/kg. Also, in data set [3], the median effective dose (ED50) amounted to 0.6 mg/kg. Also, the R/A ratio in data set [1] (setting [4]) turned out to be 6.7.

On to `OCCN1CCC(=C2c3ccccc3Oc3ccc(Br)cc32)CC1` [XXVI, 4-(2-bromo-9-xanthenylidene)-1-(β-hydroxyethyl)-piperidine], for which the “Antagonism” value in data set [2] was 2.1 mg/kg. Also, the ED50 in data set [3] was 0.6 mg/kg. Moreover, the R/A ratio in data set [1] (setting [4]) is on record as 3.5.

As for `CN1CCC(=C2c3cc(Cl)ccc3COc3ccccc32)CC1` [XXVII, 4-(9-chloro-11(6H)-dibenz[b,e]oxepinylidene)-1-methylpiperidine], in data set [2], the “Antagonism” value was more than 24 mg/kg. Further, the 50% effective dose (ED50) in data set [3] came out at 1.6 mg/kg. For the same molecule, the R/A ratio in data set [1] (setting [4]) is reported as more than 15.

As to `CN1CCC(=C2c3ccccc3Sc3ccc(C#N)cc32)CC1` [XXVIII, 4-(2-cyano-9-thioxanthenylidene)-1-methylpiperidine], in data set [2], the “Antagonism” value worked out at 0.67 mg/kg. The median effective dose (ED50) in data set [3] turned out to be 0.16 mg/kg. In data set [1] (setting [4]), the R/A ratio was 4.0.

For the molecule `OCCCN1CCC(=C2c3ccccc3Oc3ccc(Cl)cc32)CC1` [XXX, 4-(2-chloro-9-xanthenylidene)-1-(3-hydroxypropyl)-piperidine], in data set [2], the “Antagonism” value turned out to be 0.78 mg/kg. Moreover, in data set [3], the ED50 turned out to be 0.2 mg/kg. The R/A ratio in data set [1] (setting [4]) is on record as 3.9.

For `CCCCN1CCC(=C2c3ccccc3Oc3ccc(C(F)(F)F)cc32)CC1` [XXXI, 4-(2-trifluoromethyl-9-xanthenylidene)-1-n-butylpiperidine], in data set [2], the “Antagonism” value was found to be 1 mg/kg. In addition, the ED50 in data set [3] worked out at 0.1 mg/kg. Further, the R/A ratio in data set [1] (setting [4]) came out at 10.

Turning to `CCCCN1CCC(=C2c3ccccc3Oc3ccc(Br)cc32)CC1` [XXXII, 4-(2-bromo-9-xanthenylidene)-1-n-butylpiperidine], in data set [2], the “Antagonism” value worked out at 3.0 mg/kg. Moreover, in data set [3], the median effective dose (ED50) was found to be 0.6 mg/kg. Further, in data set [1] (setting [4]), the R/A ratio is recorded as 5.0.

Regarding `CN1CCC(=C2c3ccccc3COc3cc(Cl)ccc32)CC1` [XXXIII, 4-(3-chloro-11(6H)-dibenz[b,e]oxepinylidene)-1-methylpiperidine], the “Antagonism” value in data set [2] is listed as more than 25 mg/kg. In data set [3], the ED50 turned out to be 7.5 mg/kg. The R/A ratio in data set [1] (setting [4]) is recorded as more than 3.
